Data published in paper PMC3784351 (Cancer chemotherapy and pharmacology, 2013).

T1: proton-coupled folate transporter (PCFT) (Homo sapiens, UniProt Q96NT5)
T1 sequence (Q96NT5 1-459): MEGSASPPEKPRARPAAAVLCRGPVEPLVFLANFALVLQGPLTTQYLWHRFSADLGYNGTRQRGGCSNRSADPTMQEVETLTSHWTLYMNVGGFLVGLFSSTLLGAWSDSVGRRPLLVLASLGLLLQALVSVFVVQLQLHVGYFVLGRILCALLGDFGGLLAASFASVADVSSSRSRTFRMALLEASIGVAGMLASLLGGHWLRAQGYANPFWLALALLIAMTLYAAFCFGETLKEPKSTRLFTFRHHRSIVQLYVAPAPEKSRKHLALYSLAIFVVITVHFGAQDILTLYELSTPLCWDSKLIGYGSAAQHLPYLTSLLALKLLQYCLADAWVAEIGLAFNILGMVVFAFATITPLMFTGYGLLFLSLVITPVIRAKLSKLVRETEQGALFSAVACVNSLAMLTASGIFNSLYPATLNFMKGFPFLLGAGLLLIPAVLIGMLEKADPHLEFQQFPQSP

B1: reduced folate carrier (RFC) (Homo sapiens) (protein)
chain: MVPSSPAVEKQVPVEPGPDPELRSWRHLVCYLCFYGFMAQIRPGESFITPYLLGPDKNFTREQVTNEITPVLSYSYLAVLVPVFLLTDYLRYTPVLLLQGLSFVSVWLLLLLGHSVAHMQLMELFYSVTMAARIAYSSYIFSLVRPARYQRVAGYSRAAVLLGVFTSSVLGQLLVTVGRVSFSTLNYISLAFLTFSVVLALFLKRPKRSLFFNRDDRGRCETSASELERMNPGPGGKLGHALRVACGDSVLARMLRELGDSLRRPQLRLWSLWWVFNSAGYYLVVYYVHILWNEVDPTTNSARVYNGAADAASTLLGAITSFAAGFVKIRWARWSKLLIAGVTATQAGLVFLLAHTRHPSSIWLCYAAFVLFRGSYQFLVPIATFQIASSLSKELCALVFGVNTFFATIVKTIITFIVSDVRGLGLPVRKQFQLYSVYFLILSIIYFLGAMLDGLRHCQRGHHPRQPPAQGLRSAAEEKAAQALSVQDKGLGGLQPAQSPPLSPEDSLGAVGPASLEQRQSDPYLAQAPAPQAAEFLSPVTTPSPCTLCSAQASGPEAADETCPQLAVHPPGVSKLGLQCLPSDGVQNVNQ

What was measured:
[1] = target: T1, proton-coupled folate transporter (PCFT); test: tritiated influx in HeLa R1-PCFT versus R1-11 cells; assay type: cell-based
[2] = substrate: C#CCC(Cc1cnc2nc(N)nc(N)c2n1)c1ccc(C(=O)N[C@@H](CCC(=O)O)C(=O)O)cc1; test: cells, lysate or membranes; settings: pH 7.4

Molecule | tritiated influx in HeLa R1-PCFT versus R1-11 cells (poor substrate) [1] | Km [2]
C#CCC(Cc1cnc2nc(N)nc(N)c2n1)c1ccc(C(=O)N[C@@H](CCC(=O)O)C(=O)O)cc1 (some centres unmarked) [pralatrexate] | among the antifolates tested, pralatrexate was the poorest substrate for PCFT | 
B1 |  | 0.52 ± 0.2 µM
